Measured values taken from article PMC5718519, “Crystal structures of ternary complexes of archaeal B-family DNA polymerases” (PLoS ONE, 2017).

Target: T1, KOD DNA pol (exo-) (Thermococcus kodakarensis, UniProt P77933, D141A/E143A)
T1 construct: exonuclease-deficient mature polymerase (inteins absent); codon-optimized, pET24a, E. coli BL21(DE3); heparin and Superdex 75; no tag mentioned
Experiment: X-ray crystal structure of closed ternary complex
Assay type: binding
Details: with ddC-terminated primer/template DNA; Mg2+ (site A) and two Mn2+ (sites B, C); polymerase active site; pH 7.5

SMILES: Nc1ncnc2c1ncn2[C@H]1C[C@H](O)[C@@H](COP(=O)(O)OP(=O)(O)OP(=O)(O)O)O1 [dATP, 2’-deoxy-adenosine-5’-triphosphate]
- X-ray crystal structure of closed ternary complex: KOD DNA pol binds the incoming dATP in a pocket formed by the palm
